# Active and inactive are the calls of the source. The calls are words filed in the database; no cut-off is given here.
# Tests used:
# UMUC3 = assay: Inhibition of cell proliferation in human UMUC3 cells upto 10 umol/L incubated for 72 hrs by DAPI staining based analysis; format: functional; details: dose <= 10.0 µmol/L
# [1] = molecular target: Mitogen-activated protein kinase 1 (Homo sapiens) (UniProt P28482); assay: Inhibition of ERK2 (unknown origin) at 1 uM in presence of ATP relative to control; values are per cent of control
# SNB-19 = assay: Inhibition of cell proliferation in human SNB-19 cells upto 10 umol/L incubated for 72 hrs by DAPI staining based analysis; format: functional; details: dose <= 10.0 µmol/L
# [2] = Clearance in monkey at 1 mg/kg, iv administered as 20% hydroxypropyl-beta-cyclodextrin formulation by LC-MS analysis; format: ADME, organism-based, Macaca mulatta; details: rhesus monkey, in vivo
# NIH3T3 = format: functional, organism-based; details: Mus musculus, dose 30-300 mg/kg, route po, time 9.0 day
# [3] = molecular target: Fibroblast growth factor receptor 1 (Homo sapiens) (UniProt P11362); assay: Inhibition of FGFR1 (unknown origin) at 1 uM in presence of ATP relative to control; values are per cent of control
# Sequence of Fibroblast growth factor receptor 1 (Homo sapiens) (P11362 22-822 limits assumed): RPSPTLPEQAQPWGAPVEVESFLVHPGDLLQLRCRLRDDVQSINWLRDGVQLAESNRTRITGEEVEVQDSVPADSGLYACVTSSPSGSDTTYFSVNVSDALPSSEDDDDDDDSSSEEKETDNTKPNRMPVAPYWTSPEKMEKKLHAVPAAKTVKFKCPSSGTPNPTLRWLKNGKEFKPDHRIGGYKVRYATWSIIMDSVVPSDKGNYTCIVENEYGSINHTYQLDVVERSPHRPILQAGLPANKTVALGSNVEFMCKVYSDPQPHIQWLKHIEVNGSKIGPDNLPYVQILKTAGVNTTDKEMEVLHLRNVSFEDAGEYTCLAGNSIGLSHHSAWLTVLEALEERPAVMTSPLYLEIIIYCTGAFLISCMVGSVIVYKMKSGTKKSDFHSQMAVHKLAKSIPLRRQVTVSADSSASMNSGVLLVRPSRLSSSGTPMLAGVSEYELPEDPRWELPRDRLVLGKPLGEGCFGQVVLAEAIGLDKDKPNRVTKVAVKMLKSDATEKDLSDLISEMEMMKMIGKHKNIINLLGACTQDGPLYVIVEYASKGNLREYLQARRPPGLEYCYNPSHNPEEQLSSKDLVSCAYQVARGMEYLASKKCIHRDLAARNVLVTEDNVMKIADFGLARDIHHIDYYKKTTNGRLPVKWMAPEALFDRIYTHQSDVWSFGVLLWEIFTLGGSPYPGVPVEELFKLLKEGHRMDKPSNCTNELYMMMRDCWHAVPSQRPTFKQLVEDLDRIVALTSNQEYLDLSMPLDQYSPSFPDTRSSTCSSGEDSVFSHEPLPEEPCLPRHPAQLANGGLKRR
# [4] = Inhibition of N-terminal 6His-tagged TRKC G623R mutant (506 to 829 residues) (unknown origin) expressed in Escherichia coli incubated for 60 mins by [gamma-33P]-ATP based TopCount NXT liquid scintillation assay; parameters: species or system Homo sapiens
# SU-DHL10 = assay: Inhibition of cell proliferation in human SU-DHL-10 cells upto 10 umol/L incubated for 72 hrs by DAPI staining based analysis; format: functional; details: dose <= 10.0 µmol/L
# [5] = molecular target: Serine/threonine-protein kinase mTOR (Homo sapiens) (UniProt P42345); assay: Inhibition of MTOR (unknown origin) at 1 uM in presence of ATP relative to control; values are per cent of control
# [6] = molecular target: Serine/threonine-protein kinase ULK2 (Homo sapiens) (UniProt Q8IYT8); assay: Inhibition of ULK2 (unknown origin) at 1 uM in presence of ATP relative to control; values are per cent of control
# Sequence of Serine/threonine-protein kinase ULK2 (Homo sapiens) (Q8IYT8 whole entry): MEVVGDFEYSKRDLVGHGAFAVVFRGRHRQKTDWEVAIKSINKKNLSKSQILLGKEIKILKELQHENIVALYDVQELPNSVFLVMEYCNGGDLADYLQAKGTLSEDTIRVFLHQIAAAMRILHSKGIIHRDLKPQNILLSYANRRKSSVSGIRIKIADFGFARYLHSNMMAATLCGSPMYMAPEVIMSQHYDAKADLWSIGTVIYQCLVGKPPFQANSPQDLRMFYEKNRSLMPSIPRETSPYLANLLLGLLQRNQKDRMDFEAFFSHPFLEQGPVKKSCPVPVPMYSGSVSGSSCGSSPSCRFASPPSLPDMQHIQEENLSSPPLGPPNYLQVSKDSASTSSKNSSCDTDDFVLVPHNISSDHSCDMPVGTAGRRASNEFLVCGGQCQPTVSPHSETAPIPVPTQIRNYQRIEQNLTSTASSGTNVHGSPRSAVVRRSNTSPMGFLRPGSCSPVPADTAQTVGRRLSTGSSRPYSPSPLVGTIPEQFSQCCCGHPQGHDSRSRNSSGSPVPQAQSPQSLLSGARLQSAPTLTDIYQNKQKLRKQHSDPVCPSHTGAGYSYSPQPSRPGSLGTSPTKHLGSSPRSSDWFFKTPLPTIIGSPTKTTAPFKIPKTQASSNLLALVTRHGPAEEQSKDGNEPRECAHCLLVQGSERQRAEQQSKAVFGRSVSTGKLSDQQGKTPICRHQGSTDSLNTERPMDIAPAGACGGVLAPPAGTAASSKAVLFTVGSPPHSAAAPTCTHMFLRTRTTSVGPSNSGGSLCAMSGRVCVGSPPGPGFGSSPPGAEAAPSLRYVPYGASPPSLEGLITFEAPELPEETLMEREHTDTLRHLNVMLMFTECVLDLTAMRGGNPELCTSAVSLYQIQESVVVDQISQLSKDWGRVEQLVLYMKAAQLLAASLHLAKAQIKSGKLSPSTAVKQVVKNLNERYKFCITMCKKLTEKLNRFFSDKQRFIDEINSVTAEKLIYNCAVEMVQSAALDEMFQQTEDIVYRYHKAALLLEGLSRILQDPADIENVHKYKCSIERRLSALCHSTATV
# [7] = Cmax in pediatric patient with recurrent ETV6-NTRK3-rearranged infantile fibrosarcoma at 60 mg administered twice a day as liquid formulation for 8 day by LC-MS/MS analysis; format: ADME; details: human, in vivo
# [8] = molecular target: Rho-associated protein kinase 1 (Homo sapiens) (UniProt Q13464); assay: Inhibition of ROCK-I (unknown origin) at 1 uM in presence of ATP relative to control; values are per cent of control
# Sequence of Rho-associated protein kinase 1 (Homo sapiens) (Q13464 2-1354 limits assumed): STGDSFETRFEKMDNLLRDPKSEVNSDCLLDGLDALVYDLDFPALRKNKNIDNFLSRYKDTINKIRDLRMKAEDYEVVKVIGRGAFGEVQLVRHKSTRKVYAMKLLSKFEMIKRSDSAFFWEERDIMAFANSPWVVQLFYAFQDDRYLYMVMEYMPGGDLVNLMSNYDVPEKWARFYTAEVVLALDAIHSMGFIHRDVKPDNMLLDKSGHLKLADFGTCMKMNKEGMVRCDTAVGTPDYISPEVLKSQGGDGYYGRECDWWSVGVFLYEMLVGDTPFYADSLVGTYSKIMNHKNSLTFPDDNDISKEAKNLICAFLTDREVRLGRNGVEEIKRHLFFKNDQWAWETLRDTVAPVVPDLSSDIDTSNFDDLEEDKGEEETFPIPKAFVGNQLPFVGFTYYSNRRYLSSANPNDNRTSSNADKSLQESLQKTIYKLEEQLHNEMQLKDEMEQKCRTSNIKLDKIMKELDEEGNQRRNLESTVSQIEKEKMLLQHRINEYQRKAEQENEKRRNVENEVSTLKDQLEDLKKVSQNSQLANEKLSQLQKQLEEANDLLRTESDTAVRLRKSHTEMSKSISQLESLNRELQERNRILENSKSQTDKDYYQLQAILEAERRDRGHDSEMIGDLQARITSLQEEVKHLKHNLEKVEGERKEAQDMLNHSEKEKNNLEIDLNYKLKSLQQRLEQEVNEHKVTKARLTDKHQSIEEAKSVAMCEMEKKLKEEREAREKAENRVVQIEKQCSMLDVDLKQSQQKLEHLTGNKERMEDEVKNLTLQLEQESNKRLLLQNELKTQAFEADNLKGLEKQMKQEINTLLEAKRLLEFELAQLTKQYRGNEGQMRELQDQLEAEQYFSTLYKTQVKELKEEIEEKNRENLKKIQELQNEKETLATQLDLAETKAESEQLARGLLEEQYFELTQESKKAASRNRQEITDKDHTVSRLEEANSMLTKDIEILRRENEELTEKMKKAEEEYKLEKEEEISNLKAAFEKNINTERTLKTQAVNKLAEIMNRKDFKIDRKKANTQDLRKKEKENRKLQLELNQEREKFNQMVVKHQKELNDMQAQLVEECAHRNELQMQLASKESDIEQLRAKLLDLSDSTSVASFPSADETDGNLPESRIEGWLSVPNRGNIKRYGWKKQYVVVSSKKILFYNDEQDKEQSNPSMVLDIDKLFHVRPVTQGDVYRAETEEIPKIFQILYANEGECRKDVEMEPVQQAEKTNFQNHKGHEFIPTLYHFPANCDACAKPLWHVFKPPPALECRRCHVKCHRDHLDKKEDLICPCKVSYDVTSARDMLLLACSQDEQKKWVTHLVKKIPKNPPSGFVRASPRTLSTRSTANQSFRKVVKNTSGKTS
# SJRH30 = assay: Inhibition of cell proliferation in human SJRH30 cells upto 10 umol/L incubated for 72 hrs by DAPI staining based analysis; format: functional; details: dose <= 10.0 µmol/L
# Detroit 562 = assay: Inhibition of cell proliferation in human Detroit 562 cells upto 10 umol/L incubated for 72 hrs by DAPI staining based analysis; format: functional; details: dose <= 10.0 µmol/L
# [9] = molecular target: Homeodomain-interacting protein kinase 2 (Homo sapiens) (UniProt Q9H2X6); assay: Inhibition of HIPK2 (unknown origin) at 1 uM in presence of ATP relative to control; values are per cent of control
# Sequence of Homeodomain-interacting protein kinase 2 (Homo sapiens) (Q9H2X6 whole entry, looked up): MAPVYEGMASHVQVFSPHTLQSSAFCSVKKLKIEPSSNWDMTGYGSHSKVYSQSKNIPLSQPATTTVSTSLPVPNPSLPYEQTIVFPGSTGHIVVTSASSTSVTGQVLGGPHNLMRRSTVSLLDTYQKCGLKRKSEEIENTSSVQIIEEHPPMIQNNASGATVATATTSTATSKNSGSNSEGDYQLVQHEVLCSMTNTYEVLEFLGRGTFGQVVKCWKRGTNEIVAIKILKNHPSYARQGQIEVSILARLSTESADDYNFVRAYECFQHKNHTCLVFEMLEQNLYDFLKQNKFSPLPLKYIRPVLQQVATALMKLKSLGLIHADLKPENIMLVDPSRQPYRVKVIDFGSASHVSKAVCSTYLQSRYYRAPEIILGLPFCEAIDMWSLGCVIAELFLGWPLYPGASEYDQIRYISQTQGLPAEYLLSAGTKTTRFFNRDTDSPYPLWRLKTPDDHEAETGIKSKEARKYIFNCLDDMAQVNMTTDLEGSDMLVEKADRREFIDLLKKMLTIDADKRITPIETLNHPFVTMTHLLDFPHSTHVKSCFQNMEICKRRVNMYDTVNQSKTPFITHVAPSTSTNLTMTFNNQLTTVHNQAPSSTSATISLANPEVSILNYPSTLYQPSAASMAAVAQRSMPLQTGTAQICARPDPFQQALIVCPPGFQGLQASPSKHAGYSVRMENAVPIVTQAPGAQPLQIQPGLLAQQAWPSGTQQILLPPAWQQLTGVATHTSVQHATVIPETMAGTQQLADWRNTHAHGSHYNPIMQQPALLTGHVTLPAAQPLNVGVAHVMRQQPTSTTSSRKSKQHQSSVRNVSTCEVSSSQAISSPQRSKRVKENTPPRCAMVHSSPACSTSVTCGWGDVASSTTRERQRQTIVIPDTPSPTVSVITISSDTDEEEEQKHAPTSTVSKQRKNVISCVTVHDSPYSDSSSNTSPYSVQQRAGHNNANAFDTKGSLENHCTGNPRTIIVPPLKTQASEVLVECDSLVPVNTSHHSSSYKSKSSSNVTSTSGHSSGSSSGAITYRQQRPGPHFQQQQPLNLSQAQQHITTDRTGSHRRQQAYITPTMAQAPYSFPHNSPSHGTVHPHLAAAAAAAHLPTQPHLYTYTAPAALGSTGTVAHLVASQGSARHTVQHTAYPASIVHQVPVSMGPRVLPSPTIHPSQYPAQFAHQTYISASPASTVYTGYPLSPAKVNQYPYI
# [10] = molecular target: Receptor tyrosine-protein kinase erbB-4 (Homo sapiens) (UniProt Q15303); assay: Inhibition of ErbB4 (unknown origin) at 1 uM in presence of ATP relative to control; values are per cent of control
# 647-V = assay: Inhibition of cell proliferation in human 647-V cells upto 10 umol/L incubated for 72 hrs by DAPI staining based analysis; format: functional; details: dose <= 10.0 µmol/L
# Homo sapiens = species on record: Homo sapiens; assay: Inhibition of Abl-P (unknown origin) at 1 uM in presence of ATP relative to control; values are per cent of control
# [11] = molecular target: Serine/threonine-protein kinase MRCK beta (Homo sapiens) (UniProt Q9Y5S2); assay: Inhibition of MRCKbeta (unknown origin) at 1 uM in presence of ATP relative to control; values are per cent of control
# [12] = molecular target: Insulin receptor (Homo sapiens) (UniProt P06213); assay: Inhibition of Activated IR (unknown origin) at 1 uM in presence of ATP relative to control; values are per cent of control
# L-428 = assay: Inhibition of cell proliferation in human L428 cells upto 10 umol/L incubated for 72 hrs by DAPI staining based analysis; format: functional; details: dose <= 10.0 µmol/L
# [13] = molecular target: Serine/threonine-protein kinase STK11 (Homo sapiens) (UniProt Q15831); assay: Inhibition of LKB1 (unknown origin) at 1 uM in presence of ATP relative to control; values are per cent of control
# [14] = molecular target: MAP kinase-activated protein kinase 2 (Homo sapiens) (UniProt P49137); assay: Inhibition of MAPKAP-K2 (unknown origin) at 1 uM in presence of ATP relative to control; values are per cent of control
# Sequence of MAP kinase-activated protein kinase 2 (Homo sapiens) (P49137 whole entry, looked up): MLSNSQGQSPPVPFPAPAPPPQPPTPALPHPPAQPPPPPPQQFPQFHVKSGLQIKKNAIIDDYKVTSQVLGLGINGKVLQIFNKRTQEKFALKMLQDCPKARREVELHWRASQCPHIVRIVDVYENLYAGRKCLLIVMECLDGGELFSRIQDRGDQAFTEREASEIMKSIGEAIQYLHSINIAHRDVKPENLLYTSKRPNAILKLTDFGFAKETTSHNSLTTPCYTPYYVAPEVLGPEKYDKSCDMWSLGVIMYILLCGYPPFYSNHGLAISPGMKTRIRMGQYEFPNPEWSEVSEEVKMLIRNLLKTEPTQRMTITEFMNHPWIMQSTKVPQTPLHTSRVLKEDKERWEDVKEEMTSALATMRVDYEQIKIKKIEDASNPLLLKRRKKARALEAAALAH
# [15] = molecular target: Serine/threonine-protein kinase D1 (Homo sapiens) (UniProt Q15139); assay: Inhibition of PKD1 (unknown origin) at 1 uM in presence of ATP relative to control; values are per cent of control
# AN3-CA = assay: Inhibition of cell proliferation in human AN3-CA cells upto 10 umol/L incubated for 72 hrs by DAPI staining based analysis; format: functional; details: dose <= 10.0 µmol/L
# [16] = molecular target: Serine/threonine-protein kinase NLK (Homo sapiens) (UniProt Q9UBE8); assay: Inhibition of NLK (unknown origin) at 1 uM in presence of ATP relative to control; values are per cent of control
# [17] = molecular target: Tyrosine-protein kinase Yes (Homo sapiens) (UniProt P07947); assay: Inhibition of Yes (unknown origin) at 1 uM in presence of ATP relative to control; values are per cent of control
# [18] = molecular target: Protein-tyrosine kinase 6 (Homo sapiens) (UniProt Q13882); assay: Inhibition of PTK6 (unknown origin) at 1 uM in presence of ATP relative to control; values are per cent of control
# [19] = Oral bioavailability in rat at 10 mg/kg administered as 1% carboxymethylcellulose 0.5% Tween 80 formulation by LC-MS analysis; format: ADME, organism-based; details: in vivo
# [20] = Cmin in pediatric patient with recurrent ETV6-NTRK3-rearranged infantile fibrosarcoma at 60 mg administered twice a day as liquid formulation for 8 day and measured 12 hrs post dose by LC-MS/MS analysis; format: ADME; details: human, in vivo, read-out: Cmin
# [21] = molecular target: Angiopoietin-1 receptor (Homo sapiens) (UniProt Q02763); assay: Inhibition of Tie2 (unknown origin) at 1 uM in presence of ATP relative to control; values are per cent of control
structure (smiles),measurement,setting,value
C[C@@H]1CCc2ncc(F)cc2[C@H]2CCCN2c2ccn3ncc(c3n2)C(=O)N1 [SELITRECTINIB],inhibition,UMUC3,inactive
same,residual activity,[1],105%
same,inhibition,SNB-19,inactive
same,clearance,[2],23.3 mL/min/kg
same,Activity,NIH3T3,Active
same,residual activity,[3],91.5%
same,IC50,[4],2.3 nM
same,inhibition,SU-DHL10,inactive
same,residual activity,[5],95%
same,residual activity,[6],96%
same,Cmax,[7],415 ng/mL
same,residual activity,[8],105%
same,inhibition,SJRH30,inactive
same,inhibition,Detroit 562,inactive
same,residual activity,[9],113%
same,residual activity,[10],116%
same,inhibition,647-V,inactive
same,residual activity,Homo sapiens,87%
same,residual activity,[11],128%
same,residual activity,[12],97%
same,inhibition,L-428,inactive
same,residual activity,[13],108%
same,residual activity,[14],102%
same,residual activity,[15],106%
same,inhibition,AN3-CA,inactive
same,residual activity,[16],110%
same,residual activity,[17],82%
same,residual activity,[18],98.5%
same,bioavailability,[19],24%
same,concentration at 204 h,[20],< 1 ng/mL
same,residual activity,[21],119%
